From patent US11053226B2, “KRAS G12C inhibitors and methods of using the same” (Amgen Inc., priority 2018, dated 2021)
Read-outs that look alike come from different tables or passages of the source.

Columns and labels:
[1] = target: GDP-bound KRAS protein (aa 1-169), containing both G12C and C118A amino acid substitutions (Homo sapiens (Human), UniProt P01116, C118A/G12C); experiment: Coupled Nucleotide Exchange Assay; assay type: biochemical
Description: For compounds in Table 9, the following assay conditions were employed:
Coupled Nucleotide Exchange Assay:
The assay plates were then read on a PerkinElmer EnVision Multilabel Reader, using AlphaScreen® technology, and data were analyzed using a 4-parameter logistic model to calculate IC50 values.

[2] = tested on: Phosphorylation of ERK1/2 in MIA PaCa-2 cells; experiment: Phospho-ERK1/2 MSD Assay; assay type: cell-based; conditions: MiaPaCa-2 cells
[3] = tested on: Phosphorylation of ERK1/2 in A549 cells; experiment: Phospho-ERK1/2 MSD Assay (A549); assay type: cell-based; conditions: Homo sapiens
[4] = read-out: Coupled Exchange IC50 (2 h), 2 h compound pre-incubation
[5] = read-out: Coupled Exchange IC50 (20 h), 20 h compound pre-incubation
[6] = Homo sapiens, MIA PaCa-2, 4 h, read-out: pERK IC50 (4 h, MiaPaCa-2), 4 h compound treatment
[7] = A549, 4 h, read-out: pERK IC50 (4 h, A549), 4 h compound treatment
[8] = Homo sapiens, MIA PaCa-2, read-out: pERK IC50 (4 h), 4 h compound treatment
[9] = read-out: pERK IC50 (4 h), 4 h compound treatment

Chain of GDP-bound KRAS protein (aa 1-169), containing both G12C and C118A amino acid substitutions (P01116 other isoform, or with tags, fused parts or gaps G12C/C118A): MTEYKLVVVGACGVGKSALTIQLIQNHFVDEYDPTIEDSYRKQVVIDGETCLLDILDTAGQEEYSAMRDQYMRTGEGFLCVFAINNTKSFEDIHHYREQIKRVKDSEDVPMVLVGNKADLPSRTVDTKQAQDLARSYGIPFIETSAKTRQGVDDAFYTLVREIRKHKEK

Compound	IC50 [1, 4] [µM]	IC50 [1, 5] [µM]	IC50 [2, 6] [µM]	IC50 [3, 7] [µM]	IC50 [2, 8] [µM]	IC50 [3, 9] [µM]	IC50 ([1]; read-out: Coupled Exchange IC50 (5 min), 5 min compound pre-incubation) [µM]	IC50 ([2]; read-out: pERK IC50 (4 h, MiaPaCa-2), 4 h compound treatment) [µM]
C=CC(=O)N1CC(N(C)C(=O)Cn2c(C)c(C(=O)N3CCc4c(cccc4OC)C3)c3cc(Cl)ccc32)C1 [Example 33]	0.21	0.13	2.8	> 100				
C=CC(=O)N1CC(NC(=O)Cn2cc(C(=O)NCC(CC)Oc3cccc(Cl)c3)c3cc(Br)ccc32)C1 (stereo not drawn) [Example 152]	1.8	0.47	51.6	68.8				
C=CC(=O)N1CC(NC(=O)Cn2cc(-c3c(C)ccc4cn[nH]c34)c3cc(Br)ccc32)C1 [Example 130]	4.49	1.02			37	50.1		
C=CC(=O)N1CC(NC(=O)Cn2cc(I)c3ccc(Br)cc32)C1 [Example 70]	8.96	1.7			9.94	> 100		
C=CC(=O)N1CC(NC(=O)Cn2c(C)c(-c3cccnc3OC(C)C)c3cc(Br)ccc32)C1 [Example 115]	2.78				28.1	> 100		
C=CC(=O)N1CC(NC(=O)Cn2cc(-c3cccc4ccccc34)c3cc(Br)cc(C)c32)C1 [Example 110]	4.39	1.2			24.9	42.1		
C=CC(=O)N1CC(NC(=O)Cn2cc(-c3c(C)ccc4[nH]ncc34)c3cc(Cl)ccc32)C1 [Example 142]	3.71	0.83			44.1	> 100		
C=CC(=O)N1CC(NC(=O)Cn2cc(-c3ccccc3C(C)C)c3cc(Br)cc(C)c32)C1 [Example 119]	1.71	0.39			30.6	> 100		
C=CC(=O)N1CC(NC(=O)Cn2c(C)c(-c3ccccc3OC(C)C)c3cc(Cl)ccc32)C1 [Example 113]	0.9				26.2	> 100		
C=CC(=O)N1CC(NC(=O)Cn2c(C)c(C(=O)N3CCc4ccccc4C3CC)c3cc(Br)cc(C)c32)C1 (stereo not drawn) [Example 59]	0.81		6.84	45.9				
C=CC(=O)N1CC(NC(=O)Cn2c(C(=O)OC)c(I)c3cc(Br)ccc32)C1 [Example 111]	1.98	0.35			25.4	> 100		
C=CC(=O)N1CC(NC(=O)Cn2c(C)c(-c3ccccc3C3CC3)c3cc(Cl)ccc32)C1 [Example 36]	0.71	0.2			3.31	> 33.3		
C=CC(=O)N1CC(N(C)C(=O)Cn2cc(I)c3cc(I)ccc32)C1 [Example 66]	2.41	0.1			8.48	> 33.3	19.5	
C=CC(=O)N1CC(NC(=O)Cn2ccc3cc(Cl)cc(Cl)c32)C1 [Example 165]	13.2	2.65			> 100	> 100		
C=CC(=O)N1CC(NC(=O)Cn2cc(Br)c3cc(Cl)cc(C)c32)C1 [Example 91]	3.18	0.37			16.3	> 100		
C=CC(=O)N1CC(N(C)C(=O)Cn2c(CC)c(C(=O)N3CCc4c(ccnc4OC)C3)c3cc(Cl)cc(C)c32)C1 [Example 4-1, 2-(5-Chloro-2-ethyl-3-((5-methoxy-3,4-dihydro-2,6-naphthyridin-2(1H)-yl)carbonyl)-7-methyl-1H-indol-1-yl)-N-methyl-N-(1-(2-propenoyl)-3-azetidinyl)acetamide]	0.12		0.13	> 100				
C=CC(=O)N1CC(NC(=O)Cn2c(C)c(C(=O)N3CCc4ccccc4[C@H]3C)c3cc(Br)cc(C)c32)C1 (stereo in doubt) [Example 2-2, 2-(5-Bromo-2,7-dimethyl-3-(((1R)-1-methyl-3,4-dihydro-2(1H)-isoquinolinyl)carbonyl)-1H-indol-1-yl)-N-(1-(2-propenoyl)-3-azetidinyl)acetamide|2-(5-bromo-2,7-dimethyl-3-(((1S)-1-methyl-3,4-dihydro-2(1H)-isoquinolinyl)carbonyl)-1H-indol-1-yl)-N-(1-(2-propenoyl)-3-azetidinyl)acetamide]	0.25			40.9				2.28
C=CC(=O)N1CC(NC(=O)Cn2cc(C3CC3)c3cc(Br)ccc32)C1 [Example 132]	9.52	1.71			37.9	> 100		
C=CC(=O)N1CC(NC(=O)Cn2c(C)c(-c3cncnc3C3CC3)c3cc(Cl)ccc32)C1 [Example 30]	2.32				2.68	> 100		

Compound	IC50 [1, 4] [µM]	IC50 [1, 5] [µM]	IC50 [2, 6] [µM]	IC50 [3, 7] [µM]	IC50 [2, 8] [µM]	IC50 [3, 9] [µM]	IC50 ([1]; read-out: Coupled Exchange IC50 (5 min), 5 min compound pre-incubation) [µM]	IC50 ([2]; read-out: pERK IC50 (4 h, MiaPaCa-2), 4 h compound treatment) [µM]
C=CC(=O)N1CC(NC(=O)Cn2c(C)c(-c3cccc4ncccc34)c3cc(Cl)ccc32)C1 [Example 147]	2.6	0.52			49.6	> 100		
C=CC(=O)N1CC(NC(=O)Cn2cc(C(=O)N3CCc4c(Br)cc(C)cc4C3)c3cc(Br)cc(C)c32)C1 [Example 80]	0.33	0.15	12.2	25.7				
C=CC(=O)N1CC(NC(=O)Cn2c(C(=O)NCc3ccccc3CN(C)C)cc3cc(Br)ccc32)C1 [Example 88]	3.26	0.72			14.9	> 100		
C=CC(=O)N1CC(NC(=O)Cn2c(C3CC3)c(C(=O)N3CCN(c4ccc(C#N)cn4)CC3)c3cc(Cl)cc(C)c32)C1 [Example 14]	0.58		1.7	> 100				
C=CC(=O)N1CC(NC(=O)Cn2c(C(=O)NCc3ccccc3)cc3cc(Br)ccc32)C1 [Example 164]	10.7	1.11			> 100	> 100		
C=CC(=O)N1CC(NC(=O)Cn2cc(C(=O)N3CCc4c(ccnc4OC)C3)c3c(Cl)c(Cl)ccc32)C1 [Example 15]	0.22		1.79	> 100				
C=CC(=O)N1CC(N(C)C(=O)Cn2c(CC)c(C(=O)N3CCN(c4ccc(C#N)cn4)C[C@H]3C)c3cc(Cl)cc(C)c32)C1 [Example 4-6, 2-(5-Chloro-3-(((2R)-4-(5-cyano-2-pyridinyl)-2-methyl-1-piperazinyl)carbonyl)-2-ethyl-7-methyl-1H-indol-1-yl)-N-methyl-N-(1-(2-propenoyl)-3-azetidinyl)acetamide]	0.13		0.73	86.2				
C=CC(=O)N1CC(NC(=O)Cn2cc(C(=O)NCCC(=O)Nc3ccccc3CC)c3cc(Br)cc(C)c32)C1 [Example 177]	0.43	0.17	> 100	> 100				
C=CC(=O)N1CC(NC(=O)Cn2c(C)c(C(=O)N3CCc4c(C)cccc4C3)c3cc(Br)ccc32)C1 [Example 25]	0.54	0.09	2.47	> 100				
C=CC(=O)N1CC(NC(=O)Cn2cc(CNCc3ccccc3)c3cc(Br)ccc32)C1 [Example 136]	9.85	1.91			39.6	36.6		
C=CC(=O)N1CC(N(C)C(=O)Cn2c(CC)c(C(=O)N3CCc4c(cccc4OC)C3)c3cc(Cl)cc(C)c32)C1 [Example 4-2, 2-(5-Chloro-2-ethyl-3-((5-methoxy-3,4-dihydro-2(1H)-isoquinolinyl)carbonyl)-7-methyl-1H-indol-1-yl)-N-methyl-N-(1-(2-propenoyl)-3-azetidinyl)acetamide]	0.15		0.21	> 100				
C=CC(=O)N1CC(NC(=O)Cn2cc(CN3CCc4ccccc4C3)c3cc(Br)ccc32)C1 [Example 145]	5.7	1.12			46.9	50.9		
C=CC(=O)N1CC(N(C)C(=O)Cn2c(C)c(C(=O)N3CCN(c4ccc(C#N)cn4)C[C@H]3C)c3cc(Br)ccc32)C1 [Example 8]	0.22		1.56	> 100				
C=CC(=O)N1CC(NC(=O)Cn2cc(-c3ccccc3-c3ccccc3)c3cc(Br)cc(C)c32)C1 [Example 62]	1.18	0.25			7.06	> 33.3		
C=CC(=O)N1CC(NC(=O)Cn2c3c(c4cc(Br)ccc42)CCCCC3)C1 [Example 102]	4.9	0.9			21.2	> 100		
C=CC(=O)N1CC(NC(=O)Cn2c(CC)c(C(=O)N3CCN(c4ccc(C#N)cn4)C[C@H]3C)c3cc(Cl)cc(C)c32)C1 [Example 1-3, 2-(5-Chloro-3-(((2R)-4-(5-cyano-2-pyridinyl)-2-methyl-1-piperazinyl)carbonyl)-2-ethyl-7-methyl-1H-indol-1-yl)-N-(1-(2-propenoyl)-3-azetidinyl)acetamide]	0.15		1.31	> 100				
C=CC(=O)N1CC(NC(=O)Cn2c3ccccc3c3cc(Br)ccc32)C1 [Example 71]	3.51	0.52			10.6	> 100		
C=CC(=O)N1CC(NC(=O)Cn2cc(C(=O)NCCc3nc(C)c(C)s3)c3cc(Br)ccc32)C1 [Example 176]	2.8	0.6	> 100	> 100				
C=CC(=O)N1CC(NC(=O)Cn2cc(I)c3cc(Br)cc(CC)c32)C1 [Example 87]	4.81	0.91			14.7	> 100		
